# Measured values: patent US20260083865A1, “PROSTATE SPECIFIC MEMBRANE ANTIGEN (PSMA) LIGANDS AND USE THEREOF” (priority 2022, published 2026)
# Numbered stars: 1 amine (or outer) side, 2 acyl side, 3 side chain; on linkers, the order of the positions; unused ones are H or OH. Bridge positions count the residues as written; N and C are the ends. Square brackets hold non-standard residues; d marks the D form. Side chains are listed from the residue outwards. Peptide text beside a SMILES is read from it. * marks the point of attachment. TtdsdLys(DOTA)NH2 = NC(=O)[C@@H](CCCCNC(=O)CN1CCN(CC(=O)O)CCN(CC(=O)O)CCN(CC(=O)O)CC1)NC(=O)CCC(=O)NCCCOCCOCCOCCCN*; X7 = O=C(O)CN1CCN(CC(=O)O)CCN(CC(=O)NC2CCN(CC(=O)*)CC2)CCN(CC(=O)O)CC1; X3 = O=C(O)CN1CCN(CC(=O)O)CCN(CC(=O)NCCCOCCOCCOCCCN*)CCN(CC(=O)O)CC1; DOTA = O=C(O)CN1CCN(CC(=O)O)CCN(CC(=O)*)CCN(CC(=O)O)CC1; Phe(3-CN) = N#Cc1cccc(C[C@H](N)C(=O)O)c1; Phe(4-Cl) = N[C@@H](Cc1ccc(Cl)cc1)C(=O)O; Arg(Me) = CNC(=N)NCCC[C@H](N)C(=O)O; Isobutyryl(2-OH) = CC(C)(O)C(=O)*; X1 = O=C(CC1CCN([*:1])CC1)[*:2]; Lys(Me) = CNCCCC[C@H](N)C(=O)O; Suc = O=C(CCC(=O)[*:2])[*:1]; Tle = CC(C)(C)[C@H](N)C(=O)O; 4Amb = NCc1ccc(C(=O)O)cc1; Nle = CCCC[C@H](N)C(=O)O; Hexanoyl = CCCCCC(=O)*; NHCH2CH2NHMe = CNCCN*; Aib = CC(C)(N)C(=O)O
# Key:
# [1] = target: T1, PSMA-expressing C4-2 cells (Homo sapiens, UniProt Q04609); experiment: FACS binding assay (competition with 50 nM PSM-0183); conditions: pIC50 category of FACS binding, C4-2 cells; read-out: pIC50 [C4-2] CAT (converted)
# T1 construct: PSMA-expressing C4-2 cells (ATCC, Cat. No. CRL-3314) were cultured in RPMI-1640; host or cells: C4-2 cells
# Procedure, shortened: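 C4-2 cells were incubated 1 h at 4 °C with 50 nM AF488-labelled peptide PSM-0183 plus increasing test compound concentrations, then washed twice in ice-cold buffer. Median fluorescence in the AF488 channel was read by flow cytometry. IC50/pIC50 was derived by 4PL fitting of MFI versus concentration.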
# [2] = target: T2, Fc-fusion protein of human PSMA (hPSMA-Fc) (Homo sapiens, UniProt Q04609); experiment: Surface plasmon resonance assay (Biacore T200, single cycle kinetic); type: binding; conditions: pKD category for PSMA SPR activity assay, hPSMA-Fc, 25° C.; read-out: pKD CAT (converted)
# T2 construct: purchased Acro Biosystems PSA-H5264
# Procedure, shortened: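 hPSMA-Fc was captured (~1000 RU) on an Fc-binding-peptide CM5 chip, and compounds were run in single cycle kinetic mode at 25° C in HBST with 0.1% DMSO. Double-blank-corrected sensorgrams were fitted to a 1:1 Langmuir model to give KD, reported as pKD.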
# T1 sequence (Q04609 whole entry): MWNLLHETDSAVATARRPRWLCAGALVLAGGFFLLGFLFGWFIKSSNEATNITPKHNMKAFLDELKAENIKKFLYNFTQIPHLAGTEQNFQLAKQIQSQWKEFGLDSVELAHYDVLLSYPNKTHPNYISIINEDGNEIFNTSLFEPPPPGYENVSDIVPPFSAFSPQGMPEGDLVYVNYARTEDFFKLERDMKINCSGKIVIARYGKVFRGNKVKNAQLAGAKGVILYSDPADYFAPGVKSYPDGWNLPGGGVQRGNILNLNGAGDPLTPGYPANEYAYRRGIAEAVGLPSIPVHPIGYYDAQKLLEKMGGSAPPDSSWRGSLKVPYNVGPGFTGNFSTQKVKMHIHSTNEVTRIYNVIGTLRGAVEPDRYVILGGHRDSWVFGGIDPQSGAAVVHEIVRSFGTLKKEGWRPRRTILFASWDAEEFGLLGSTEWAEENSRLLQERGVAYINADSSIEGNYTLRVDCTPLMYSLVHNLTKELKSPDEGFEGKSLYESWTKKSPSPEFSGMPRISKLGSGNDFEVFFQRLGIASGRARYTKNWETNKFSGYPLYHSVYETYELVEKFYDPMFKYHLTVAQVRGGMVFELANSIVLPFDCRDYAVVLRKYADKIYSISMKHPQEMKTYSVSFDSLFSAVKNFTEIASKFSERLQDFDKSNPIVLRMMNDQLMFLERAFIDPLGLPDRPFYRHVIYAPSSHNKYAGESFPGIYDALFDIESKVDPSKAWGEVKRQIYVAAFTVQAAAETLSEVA
# T2 sequence (Q04609 44-750 limits assumed): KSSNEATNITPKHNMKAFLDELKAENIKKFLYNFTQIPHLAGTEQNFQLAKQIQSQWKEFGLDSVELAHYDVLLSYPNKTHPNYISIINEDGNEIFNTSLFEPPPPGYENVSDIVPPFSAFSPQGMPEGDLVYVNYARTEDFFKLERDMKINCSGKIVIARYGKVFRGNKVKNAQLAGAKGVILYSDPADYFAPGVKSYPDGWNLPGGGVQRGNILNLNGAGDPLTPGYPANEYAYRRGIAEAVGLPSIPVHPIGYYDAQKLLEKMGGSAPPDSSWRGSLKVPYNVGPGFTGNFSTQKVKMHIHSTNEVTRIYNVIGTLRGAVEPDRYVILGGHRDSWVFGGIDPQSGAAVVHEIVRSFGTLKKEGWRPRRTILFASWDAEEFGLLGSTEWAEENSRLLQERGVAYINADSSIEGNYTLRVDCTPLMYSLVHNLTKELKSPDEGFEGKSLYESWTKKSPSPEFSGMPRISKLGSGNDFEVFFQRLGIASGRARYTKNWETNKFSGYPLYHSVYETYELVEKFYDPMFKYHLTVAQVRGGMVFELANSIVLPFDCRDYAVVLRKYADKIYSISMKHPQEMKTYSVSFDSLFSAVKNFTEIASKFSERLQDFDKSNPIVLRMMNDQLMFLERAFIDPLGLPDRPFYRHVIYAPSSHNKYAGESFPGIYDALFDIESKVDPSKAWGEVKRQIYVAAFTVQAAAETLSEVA
SMILES,IC50 [1],Kd [2]
"CCCC[C@H](NC(=O)[C@@H]1CSSC[C@H](NC(=O)[C@H](Cc2ccccc2)NC(=O)[C@H](C)NC(=O)[C@@H](NC(C)=O)[C@@H](C)O)C(=O)N[C@@H](CCCCN)C(=O)N[C@@H](CCCNC(=N)N)C(=O)N2CCC[C@H]2C(=O)N[C@@H](CC(N)=O)C(=O)N1)C(=O)N[C@H](C(=O)N[C@@H](CC(=O)O)C(N)=O)[C@@H](C)O [PSM-0460, Ac-Thr-Ala-Phe-[Cys-Lys-Arg-Pro-Asn-Cys]-Nle-Thr-Asp-NH2] (Ac-TAFCKRPNC[Nle]TD-NH2; disulfide 4-9)",< 0.2 µM,0.0126 to 0.126 µM
"C[C@@H](O)[C@H](NC(=O)[C@@H](NC(=O)[C@@H]1CSSC[C@H](NC(=O)[C@H](Cc2ccc(Cl)cc2)NC(=O)C(C)(C)O)C(=O)N[C@@H](CCCCN)C(=O)N[C@@H](CCCNC(=N)N)C(=O)NC(C)(C)C(=O)N[C@@H](CC(N)=O)C(=O)N1)C(C)(C)C)C(N)=O [PSM-0461, Hib-Pcf-[Cys-Lys-Arg-Aib-Asn-Cys]-Tle-Thr-NH2] ({Isobutyryl(2-OH)}-[Phe(4-Cl)]CKR[Aib]NC[Tle]T-NH2; disulfide 2-7)",< 0.2 µM,0.0126 to 0.126 µM
"CCCCCC(=O)N[C@H](C(=O)NC(C)(C)C(=O)N[C@@H](Cc1ccccc1)C(=O)N[C@H]1CSSC[C@@H](C(=O)N[C@H](C(=O)N[C@H](C(=O)NCCCOCCOCCOCCCNC(=O)CCC(=O)N[C@H](CCCCNC(=O)CN2CCN(CC(=O)O)CCN(CC(=O)O)CCN(CC(=O)O)CC2)C(N)=O)[C@@H](C)O)C(C)(C)C)NC(=O)[C@H](CC(N)=O)NC(=O)[C@H](C)NC(=O)[C@H](CCCNC(=N)N)NC(=O)[C@H](CCCCN)NC1=O)[C@@H](C)O [PSM-0462, Hex-Thr-Aib-Phe-[Cys-Lys-Arg-Ala-Asn-Cys]-Tle-Thr-Ttds-lys(DOTA)-NH2] (Hexanoyl-T[Aib]FCKRANC[Tle]T-{TtdsdLys(DOTA)NH2}; disulfide 4-9)",< 0.2 µM,< 0.0126 µM
"CC(=O)N[C@H](C(=O)NC(C)(C)C(=O)N[C@@H](Cc1ccccc1)C(=O)N[C@H]1CSSC[C@@H](C(=O)N[C@H](C(=O)N[C@H](C(N)=O)[C@@H](C)O)C(C)(C)C)NC(=O)[C@H](CC(N)=O)NC(=O)[C@H](CCCCNC(=O)CN2CCC(NC(=O)CN3CCN(CC(=O)O)CCN(CC(=O)O)CCN(CC(=O)O)CC3)CC2)NC(=O)[C@H](CCCNC(=N)N)NC(=O)[C@H](CCCCN)NC1=O)[C@@H](C)O [PSM-0464, Ac-Thr-Aib-Phe-[Cys-Lys-Arg-Lys(DOTA-APAc)-Asn-Cys]-Tle-Thr-NH2] (Ac-T[Aib]FCKRK(X7)NC[Tle]T-NH2; disulfide 4-9)",< 0.2 µM,< 0.0126 µM
"CC(=O)N[C@H](C(=O)NC(C)(C)C(=O)N[C@@H](Cc1ccccc1)C(=O)N[C@H]1CSSC[C@@H](C(=O)N[C@H](C(=O)N[C@H](C(N)=O)[C@@H](C)O)C(C)(C)C)NC(=O)[C@H](CC(N)=O)NC(=O)[C@H](CCCCNC(=O)CCC(=O)NCCCOCCOCCOCCCNC(=O)CN2CCN(CC(=O)O)CCN(CC(=O)O)CCN(CC(=O)O)CC2)NC(=O)[C@H](CCCNC(=N)N)NC(=O)[C@H](CCCCN)NC1=O)[C@@H](C)O [PSM-0465, Ac-Thr-Aib-Phe-[Cys-Lys-Arg-Lys(DOTA-Ttds)-Asn-Cys]-Tle-Thr-NH2] (Ac-T[Aib]FCKRK([Suc-X3])NC[Tle]T-NH2; disulfide 4-9)",< 0.2 µM,< 0.0126 µM

# More lines, now with the values ahead:
IC50 [1],Kd [2],SMILES
< 0.2 µM,0.0126 to 0.126 µM,"CNCCNC(=O)[C@@H](NC(=O)[C@@H]1CSSC[C@H](NC(=O)[C@H](Cc2ccc(Cl)cc2)NC(=O)C(C)(C)NC(=O)[C@@H](NC(=O)CC2CCN(C(=O)CN3CCN(CC(=O)O)CCN(CC(=O)O)CCN(CC(=O)O)CC3)CC2)[C@@H](C)O)C(=O)N[C@@H](CCCCN)C(=O)N[C@@H](CCCNC(=N)N)C(=O)NC(C)(C)C(=O)N[C@@H](CC(N)=O)C(=O)N1)C(C)(C)C [PSM-0456, DOTA-Cmp-Thr-Aib-Pcf-[Cys-Lys-Arg-Aib-Asn-Cys]-Tle-en(Me)] ({DOTA}-[X1]T[Aib][Phe(4-Cl)]CKR[Aib]NC[Tle]-NHCH2CH2NHMe; disulfide 5-10)"
< 0.2 µM,0.0126 to 0.126 µM,"CC(C)(NC(=O)c1ccc(CNC(=O)CN2CCN(CC(=O)O)CCN(CC(=O)O)CCN(CC(=O)O)CC2)cc1)C(=O)N[C@@H](Cc1ccccc1)C(=O)N[C@H]1CSSC[C@@H](C(=O)N[C@H](C(N)=O)C(C)(C)C)NC(=O)[C@H](CC(N)=O)NC(=O)C(C)(C)NC(=O)[C@H](CCCNC(=N)N)NC(=O)[C@H](CCCCN)NC1=O [PSM-0458, DOTA-Pamb-Aib-Phe-[Cys-Lys-Arg-Aib-Asn-Cys]-Tle-NH2] ({DOTA-4Amb}-[Aib]FCKR[Aib]NC[Tle]-NH2; disulfide 3-8)"
0.2 to 1.26 µM,0.0126 to 0.126 µM,"CNCCCC[C@@H]1NC(=O)[C@@H](NC(=O)[C@H](Cc2cccc(C#N)c2)NC(=O)C(C)(C)NC(=O)[C@@H](NC(=O)CC2CCN(C(=O)CN3CCN(CC(=O)O)CCN(CC(=O)O)CCN(CC(=O)O)CC3)CC2)[C@@H](C)O)CSSC[C@@H](C(=O)N[C@H](C(N)=O)C(C)(C)C)NC(=O)[C@H](CC(N)=O)NC(=O)C(C)(C)NC(=O)[C@H](CCCNC(=N)NC)NC1=O [PSM-0459, DOTA-Cmp-Thr-Aib-Mnf-[Cys-Lys(Me)-Arg(Me)-Aib-Asn-Cys]-Tle-NH2] ({DOTA}-[X1]T[Aib][Phe(3-CN)]C[Lys(Me)][Arg(Me)][Aib]NC[Tle]-NH2; disulfide 5-10)"
